Assay results: US10941157B2, “Pesticidal compositions and uses thereof” (Gilead Apollo, LLC, priority 2015, dated 2021)
Converted amounts (≈) assume the structure as drawn. Where two headings read alike, the source gives them in different places.

Assays:
Assay type in all cases: cell-based
Botrtyis cinerea (Bc) = assay: In vitro pathogen growth inhibition assay, Bc; details: 48 h
Procedure, shortened: (§1)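 Value reported is the compound concentration reaching ≥90% growth inhibition, from OD readings at 24 and 48 h after blank subtraction, confirmed visually. Inoculum was spores diluted in 17% V8 medium, except Rs, using 1.5 mm mycelial plugs in ¼ PDB; actual compound concentration corrected via OD600.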

[1] = tested on: Collectotrichum graminicola (Cg); assay: In vitro pathogen growth inhibition assay, Cg; details: 48 h
Procedure, shortened: as §1

Diplodia maydis (Dm) = assay: In vitro pathogen growth inhibition assay, Dm; details: Stenocarpella maydis, 48 h
Procedure, shortened: (§2)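 Spores of Dm, Fv and Pc were diluted in 17% V8 liquid medium; Rs used 1.5 mm mycelial plugs in ¼ PDB. Compounds from 2.5 mg/ml DMSO stocks were combined with inoculum, growth was read by OD600 at 24 and 48 h with blank subtraction, and the reported value is the concentration giving ≥90% inhibition.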

[2] = tested on: Fusarium moniliforme (Fm); assay: In vitro pathogen growth inhibition assay, Fm; details: Fusarium verticillioides
Procedure, shortened: as §1

[3] = tested on: Fusarium virguliforme (Fv); assay: In vitro pathogen growth inhibition assay, Fv
Procedure, shortened: as §2

[4] = tested on: Phytophthora capsici (Pc); assay: In vitro pathogen growth inhibition assay, Pc; details: 48 h
Procedure, shortened: as §2

Rhizoctonia solani (Rs) = assay: In vitro pathogen growth inhibition assay, Rs (mycelial plugs); details: Rhizoctonia solani, 48 h
Procedure, shortened: as §2

Septoria tritici (St) = assay: In vitro pathogen growth inhibition assay, St; details: Zymoseptoria tritici, 48 h
Procedure, shortened: as §1

[5] = ≥90% growth inhibition, 48 hours, vs 2% DMSO control, read-out: Compound Concentration (ppm) sufficient for ≥90% inhibition of Bc
[6] = ≥90% growth inhibition, 48 hours, vs 2% DMSO control, read-out: Compound Concentration (ppm) sufficient for ≥90% inhibition of Cg
[7] = ≥90% growth inhibition, 48 hours, vs 2% DMSO control, read-out: Compound Concentration (ppm) sufficient for ≥90% inhibition of Dm
[8] = ≥90% growth inhibition, 48 hours, vs 2% DMSO control, read-out: Compound Concentration (ppm) sufficient for ≥90% inhibition of Fm
[9] = ≥90% growth inhibition, 48 hours, vs 2% DMSO control, read-out: Compound Concentration (ppm) sufficient for ≥90% inhibition of Fv
[10] = ≥90% growth inhibition, 48 hours, vs 2% DMSO control, read-out: Compound Concentration (ppm) sufficient for ≥90% inhibition of Pc
[11] = ≥90% growth inhibition, mycelial plugs, 48 hours, vs 2% DMSO control, read-out: Compound Concentration (ppm) sufficient for ≥90% inhibition of Rs
[12] = ≥90% growth inhibition, 48 hours, vs 2% DMSO control, read-out: Compound Concentration (ppm) sufficient for ≥90% inhibition of St
[13] = concentration sufficient to ≥90% inhibition of growth, 48 hours vs 2% DMSO control, read-out: Compound Concentration (ppm) for ≥90% inhibition, Bc
[14] = concentration sufficient to ≥90% inhibition of growth, 48 hours vs 2% DMSO control, read-out: Compound Concentration (ppm) for ≥90% inhibition, Cg
[15] = concentration sufficient to ≥90% inhibition of growth, 48 hours vs 2% DMSO control, read-out: Compound Concentration (ppm) for ≥90% inhibition, Dm
[16] = concentration sufficient to ≥90% inhibition of growth, 48 hours vs 2% DMSO control, read-out: Compound Concentration (ppm) for ≥90% inhibition, Fm
[17] = concentration sufficient to ≥90% inhibition of growth, 48 hours vs 2% DMSO control, read-out: Compound Concentration (ppm) for ≥90% inhibition, Fv
[18] = concentration sufficient to ≥90% inhibition of growth, 48 hours vs 2% DMSO control, read-out: Compound Concentration (ppm) for ≥90% inhibition, Pc
[19] = concentration sufficient to ≥90% inhibition of growth, 48 hours vs 2% DMSO control, read-out: Compound Concentration (ppm) for ≥90% inhibition, Rs
[20] = concentration sufficient to ≥90% inhibition of growth, 48 hours vs 2% DMSO control, read-out: Compound Concentration (ppm) for ≥90% inhibition, St
[21] = ≥90% inhibition, 48 hours vs 2% DMSO control, read-out: Compound Concentration (ppm) sufficient for ≥90% inhibition of growth, Bc
[22] = ≥90% inhibition, 48 hours vs 2% DMSO control, read-out: Compound Concentration (ppm) sufficient for ≥90% inhibition of growth, Cg
[23] = ≥90% inhibition, 48 hours vs 2% DMSO control, read-out: Compound Concentration (ppm) sufficient for ≥90% inhibition of growth, Dm
[24] = ≥90% inhibition, 48 hours vs 2% DMSO control, read-out: Compound Concentration (ppm) sufficient for ≥90% inhibition of growth, Fm
[25] = ≥90% inhibition, 48 hours vs 2% DMSO control, read-out: Compound Concentration (ppm) sufficient for ≥90% inhibition of growth, Fv
[26] = ≥90% inhibition, 48 hours vs 2% DMSO control, read-out: Compound Concentration (ppm) sufficient for ≥90% inhibition of growth, Pc
[27] = ≥90% inhibition, mycelial plugs, 48 hours vs 2% DMSO control, read-out: Compound Concentration (ppm) sufficient for ≥90% inhibition of growth, Rs
[28] = ≥90% inhibition, 48 hours vs 2% DMSO control, read-out: Compound Concentration (ppm) sufficient for ≥90% inhibition of growth, St

| Compound | IC90 (Botrtyis cinerea (Bc); [21]) [µg/mL] | IC90 [1, 22] [µg/mL] | IC90 (Diplodia maydis (Dm); [23]) [µg/mL] | IC90 [2, 24] [µg/mL] | IC90 [3, 25] [µg/mL] | IC90 [4, 26] [µg/mL] | IC90 (Rhizoctonia solani (Rs); [27]) [µg/mL] | IC90 (Septoria tritici (St); [28]) [µg/mL] | also measured |
| --- | --- | --- | --- | --- | --- | --- | --- | --- | --- |
| COc1ccc(F)cc1[C@H](Cn1c(=O)n(C(C)(C)C(N)=O)c(=O)c2c(C)c(-n3nccn3)sc21)OCC(C)C [Compound I-165] | – | – | – | – | – | – | – | – | IC90 (Botrtyis cinerea (Bc); [5]): 2 µg/mL (≈ 3.58 µM); IC90 [1, 6]: 2 µg/mL (≈ 3.58 µM); IC90 (Diplodia maydis (Dm); [7]): 2 µg/mL (≈ 3.58 µM); IC90 [2, 8]: ≥ 0.08 µg/mL; IC90 [3, 9]: 2 µg/mL (≈ 3.58 µM); IC90 [4, 10]: > 50 µg/mL; IC90 (Rhizoctonia solani (Rs); [11]): 2 µg/mL (≈ 3.58 µM); IC90 (Septoria tritici (St); [12]): > 50 µg/mL |
| CCNC(=O)[C@H](C)n1c(=O)c2c(C)c(-n3cccn3)sc2n(C[C@H](OCCC#N)c2cc(F)ccc2OC)c1=O [Compound I-306] | – | – | – | – | – | – | – | – | IC90 (Botrtyis cinerea (Bc); [13]): 50 µg/mL (≈ 87.9 µM); IC90 [1, 14]: > 50 µg/mL; IC90 (Diplodia maydis (Dm); [15]): > 50 µg/mL; IC90 [2, 16]: 10 µg/mL (≈ 17.6 µM); IC90 [3, 17]: > 50 µg/mL; IC90 [4, 18]: > 50 µg/mL; IC90 (Rhizoctonia solani (Rs); [19]): > 50 µg/mL; IC90 (Septoria tritici (St); [20]): > 50 µg/mL |
| CCNC(=O)[C@H](C)n1c(=O)c2c(C)c(-n3nccn3)sc2n(C[C@H](OCCC#N)c2cc(F)ccc2OC)c1=O [Compound I-290] | – | – | – | – | – | – | – | – | IC90 (Botrtyis cinerea (Bc); [5]): 2 µg/mL (≈ 3.51 µM); IC90 [1, 6]: 10 µg/mL (≈ 17.6 µM); IC90 (Diplodia maydis (Dm); [7]): ≥ 10 µg/mL; IC90 [2, 8]: 0.4 µg/mL (≈ 0.702 µM); IC90 [3, 9]: 10 µg/mL (≈ 17.6 µM); IC90 [4, 10]: > 50 µg/mL; IC90 (Rhizoctonia solani (Rs); [11]): 2 µg/mL (≈ 3.51 µM); IC90 (Septoria tritici (St); [12]): > 50 µg/mL |
| COc1ccc(F)cc1[C@H](Cn1c(=O)n(C(C)(C)C(=O)N2CCCC2)c(=O)c2c(C)c(-n3cccn3)sc21)O[C@H]1CC[C@@H](O)CC1 [Compound I-123] | 2 (≈ 3.06 µM) | ≥ 10 | 10 (≈ 15.3 µM) | 0.4 (≈ 0.612 µM) | 2 (≈ 3.06 µM) | > 50 | 10 (≈ 15.3 µM) | > 50 | – |
| CCOC(=O)c1sc2c(c1C)c(=O)n(C(C)(C)C(N)=O)c(=O)n2C[C@H](OC1CCOCC1)c1ccccc1OC [Compound I-174] | – | – | – | – | – | – | – | – | IC90 (Botrtyis cinerea (Bc); [13]): 10 µg/mL (≈ 17.4 µM); IC90 [1, 14]: 50 µg/mL (≈ 87.2 µM); IC90 (Diplodia maydis (Dm); [15]): 10 µg/mL (≈ 17.4 µM); IC90 [2, 16]: 10 µg/mL (≈ 17.4 µM); IC90 [3, 17]: 10 µg/mL (≈ 17.4 µM); IC90 [4, 18]: > 50 µg/mL; IC90 (Rhizoctonia solani (Rs); [19]): 50 µg/mL (≈ 87.2 µM); IC90 (Septoria tritici (St); [20]): > 50 µg/mL |
| COc1ccc(F)cc1[C@H](Cn1c(=O)n([C@H](C)C(=O)NC(C)C)c(=O)c2c(C)c(-n3cccn3)sc21)OC(C)C [Compound I-127] | 2 (≈ 3.5 µM) | 2 (≈ 3.5 µM) | 2 (≈ 3.5 µM) | 0.4 (≈ 0.7 µM) | 0.4 (≈ 0.7 µM) | > 50 | 2 (≈ 3.5 µM) | > 50 | – |
| COCCO[C@@H](Cn1c(=O)n(CC(=O)NC(C)C)c(=O)c2c(C)c(-n3nccn3)sc21)c1cc(F)ccc1OC [Compound I-086] | > 50 | > 50 | > 50 | 0.08 (≈ 0.139 µM) | ≥ 2 | > 50 | 10 (≈ 17.4 µM) | > 50 | – |
| CCO[C@@H](Cn1c(=O)n(C(C)(C)C(=O)N2CCCC2)c(=O)c2c(C)c(-n3nccn3)sc21)c1cc(F)ccc1OC [Compound I-055] | 0.4 (≈ 0.684 µM) | 0.08 (≈ 0.137 µM) | ≥ 0.4 | 0.08 (≈ 0.137 µM) | ≥ 0.08 | > 50 | 0.4 (≈ 0.684 µM) | ≥ 2 | – |
| COc1ccccc1[C@H](Cn1c(=O)n(C(C)(C)C(=O)NC(C)C)c(=O)c2c(C)c(-n3cccn3)sc21)OC(C)C [Compound I-118] | 2 (≈ 3.52 µM) | 10 (≈ 17.6 µM) | 2 (≈ 3.52 µM) | 0.4 (≈ 0.705 µM) | 0.4 (≈ 0.705 µM) | > 50 | 50 (≈ 88.1 µM) | ≥ 50 | – |
| COc1ccc(F)cc1[C@H](Cn1c(=O)n(C(C)(C)C(=O)N2CC=CC2)c(=O)c2c(C)c(-n3cccn3)sc21)OC1CCOCC1 [Compound I-162] | 10 (≈ 15.7 µM) | 2 (≈ 3.14 µM) | 10 (≈ 15.7 µM) | 2 (≈ 3.14 µM) | 10 (≈ 15.7 µM) | > 50 | 2 (≈ 3.14 µM) | > 50 | – |
